Experiments:
[1] = Plasma protein binding, equilibrium dialysis (human); type: in vitro ADME; settings: pH 7.4, equilibrium dialysis 6 hours, read-out: PPB (human), percent of unbound fraction
[2] = Brain tissue binding, equilibrium dialysis (rat); type: in vitro ADME
Method: Thawing of the frozen brain tissue homogenate (stored at −80° C.). Frozen brain tissue homogenate was thawed immediately in a room temperature bath. Note: Only use brain tissue homogenate that has been thawed no more than once.
Preparation of working solutions. The working solutions of test compound and control compound propranolol were prepared in DMSO at the concentration of 200 μM. And then 4 μL of working solution was removed to mix with 796 μL of rat brain tissue homogenate to achieve a final concentration of 1 μM (0.5% DMSO). Brain tissue homogenate samples were vortexed thoroughly.
Preparation of dialysis membranes. The dialysis membranes were soaked in ultrapure water for 60 minutes to separate strips, then in 20% ethanol for 20 minutes, finally in dialysis buffer for 20 minutes.
Procedure for equilibrium dialysis. The dialysis apparatus was assembled according to the manufacturer's instruction. Each cell was filled with 150 μL of brain tissue homogenate sample and dialyzed against equal volume of dialysis buffer (PBS). The assay was performed in duplicate. The dialysis plate was sealed and incubated in an incubator at 37° C. with 5% CO2 at approximately 100 rpm for 6 hours. At the end of dialysis, seal was removed and 50 μL of samples from both buffer and brain tissue homogenate chambers were transferred into separate tubes in plate.
Procedure for sample analysis. 50 μL of brain tissue homogenate was added to each buffer samples and an equal volume of PBS was supplemented to the collected brain tissue homogenate sample. 400 μL of room temperature quench solution (acetonitrile containing internal standards (IS, 100 nM Alprazolam, 500 nM Labetalol and 2 μM Ketoprofen)) was added to precipitate protein. Samples in plate were vortexed for 5 minutes and centrifuged at 3,220 g for 30 minutes at room temperature. And then 100 μL of the supernatant was transferred to a new 96-well plate with 100 μL water for LC-MS/MS analysis.
Data analysis. All calculations were carried out using Microsoft Excel. […]
Fumeans=unbound fraction measured with brain tissue homogenate […]

[3] = Mouse pharmacokinetic studies; type: in vivo, male C57BL/6J mice; set-up: AUClast/D: unit not given here; settings: PO 5 mg/kg; for AUC(0-inf) / AUC(0-t) / Cmax / Tmax / half-life / MRT inf: male, C57BL/6J; for MRT inf: read-out: MRTInf—obs
Method: (§1) The rat pharmacokinetics studies of exemplary compounds 03-3, 03-5, and 03-115 were conducted with male SD rats. These rats were typically about 6-8 weeks old, weighing 200 g to 300 g. Animals were fasted overnight and free access to food 4 hours after dosing. A required volume of vehicle was added to reach the target concentration of the test article and vehicle component to prepare for the dosing. The dosing vehicle was PEG400 or 30% PEG400 in saline for IV, or 0.5% methylcellulose in water for PO. For IV dosing, the animals were administered intravenously via tail vein. For PO dosing, the animals were administered via oral gavage. After dosing, blood sample was collected (˜0.2 mL per time point) through jugular vein or heart puncture. Blood of each sample was transferred into plastic micro centrifuge tubes containing EDTA-K2. Collection tubes with blood samples and anticoagulant were inverted several times for proper mixing of the tube contents and then placed on wet ice. The blood samples were centrifuged at 2000 g for 5 minutes at 4° C. to obtain plasma which was stored in a freezer at −75±15° C. prior to analysis. Samples were analyzed using LC-MS/MS. WinNonlin were used for pharmacokinetic calculations.
Mouse pharmacokinetics studies of exemplar compounds 03-3 and 03-5 were conducted substantially similarly to the rat pharmacokinetic studies, instead using male C57BL/6J mice. These mice were typically about 6-8 weeks old, weighing 20 g to 30 g. Animals were free access to food before dosing. Sample amount was ˜0.03 mL per time point and sample site was dorsal metatarsal or heart puncture.

[4] = Monkey pharmacokinetic studies; type: in vivo, male Non-Naïve Cynomolgus Monkeys; set-up: AUClast/D: unit not given here; settings: PO 0.3 mg/kg; for AUC(0-inf) / AUC(0-t) / Cmax / Tmax / half-life / MRT inf: male, cynomolgus monkey; for MRT inf: read-out: MRTInf—obs
Method: as §1
Monkey pharmacokinetics studies of exemplary compounds 03-3, 03-5, and 03-115 were conducted substantially similarly to the rat pharmacokinetic studies, instead using male Non-Naïve Cynomolgus Monkeys. Animals for PO studies were food fasted overnight prior to dosing and were fed approximately 2 hours after dosing. Animals for IV studies had free access to food and water. Blood samples were collected through venipuncture of peripheral veins except the dosing vein.

| Structure (SMILES) | fraction unbound at 6 h, 1 μM [1] | fraction unbound at 6 h, 1 μM ([2]; rat, brain homogenate) | AUClast/D [3] | AUC—% Extrap—obs [3] | F [3] | AUC(0-inf) ([3]; plasma) | AUC(0-t) ([3]; plasma) | Cmax ([3]; plasma) | Tmax ([3]; plasma) | half-life ([3]; plasma) | MRT inf ([3]; plasma) | AUClast/D [4] | AUC—% Extrap—obs [4] | F [4] | AUC(0-inf) ([4]; plasma) | AUC(0-t) ([4]; plasma) | Cmax ([4]; plasma) | Tmax ([4]; plasma) | half-life ([4]; plasma) | MRT inf ([4]; plasma) | further results |
| --- | --- | --- | --- | --- | --- | --- | --- | --- | --- | --- | --- | --- | --- | --- | --- | --- | --- | --- | --- | --- | --- |
| CC(C)(C)NC[C@H](O)c1cccc(C(F)(F)F)n1 [Compound 03-3] | 0.89 | 0.48 | 774 | 0.958% | 85.1% | 3910 ng·h/mL | 3870 ng·h/mL | 1020 ng/mL | 0.25 h | 3.78 h | 4.08 h | 761 | 1.87% | 44.6% | 232 ng·h/mL | 228 ng·h/mL | 46.6 ng/mL | 1 h | 4.32 h | 4.99 h | – |
| CC(C)(C)NC[C@H](O)c1cccc(C#N)n1 [Compound 03-5, (S)-6-(2-(tert-butylamino)-1-hydroxyethyl)picolinonitrile] | 1 | 0.95 | 1214 | 0.0845% | 163% | 6080 ng·h/mL | 6070 ng·h/mL | 1940 ng/mL | 0.917 h | 2.51 h | 2.43 h | 1144 | 2.13% | 88.3% | 351 ng·h/mL | 343 ng·h/mL | 66.2 ng/mL | 1 h | 4.53 h | 5.11 h | – |
| Cc1ncccc1[C@@H](O)CNC(C)(C)C [Compound 03-115] | 1 | – | – | – | 112% | – | – | – | – | – | – | – | – | 71% | – | – | – | – | – | – | fraction unbound at 6 h, 1 μM ([2]; 1 μM, rat brain tissue homogenate, dialysis 6 hours, read-out: BTB (rat), percent of unbound fraction): 1; AUC(0-inf) ([3]; in vivo): 3020 ng·h/mL; Cmax ([3]; in vivo): 1750 ng/mL; Tmax ([3]; in vivo): 0.5 h; MRT inf ([3]; in vivo): 1.8 h; AUC(0-inf) ([4]; in vivo): 261 ng·h/mL; Cmax ([4]; in vivo): 67 ng/mL; Tmax ([4]; in vivo): 1.17 h; MRT inf ([4]; in vivo): 3.46 h |

Reference: patent publication US10947196B2, “Beta adrenergic agonist and methods of using the same” (CURASEN THERAPEUTICS, INC., priority 2019, dated 2021)
